Data reported in patent US12037344B2, “NLRP3 modulators” (INNATE TUMOR IMMUNITY, INC., priority 2018, dated 2024).
Where a name gives a salt, the structure may show the parent alone. Read-outs that look alike come from different tables or passages of the source.

What was measured:
TLR8 = target: T1, TLR8 (Homo sapiens, UniProt Q9NR97); experiment: In vitro human TLR8 binding reporter assay (HEK-Blue, NF-kB/AP1-inducible SEAP); assay type: cell-based; details: activity range class, read-out: TLR8 Agonist EC50
T1 construct: human HEK-Blue cells co-expressing a TLR7 or TLR8 gene
T1 sequence (Q9NR97 27-1041): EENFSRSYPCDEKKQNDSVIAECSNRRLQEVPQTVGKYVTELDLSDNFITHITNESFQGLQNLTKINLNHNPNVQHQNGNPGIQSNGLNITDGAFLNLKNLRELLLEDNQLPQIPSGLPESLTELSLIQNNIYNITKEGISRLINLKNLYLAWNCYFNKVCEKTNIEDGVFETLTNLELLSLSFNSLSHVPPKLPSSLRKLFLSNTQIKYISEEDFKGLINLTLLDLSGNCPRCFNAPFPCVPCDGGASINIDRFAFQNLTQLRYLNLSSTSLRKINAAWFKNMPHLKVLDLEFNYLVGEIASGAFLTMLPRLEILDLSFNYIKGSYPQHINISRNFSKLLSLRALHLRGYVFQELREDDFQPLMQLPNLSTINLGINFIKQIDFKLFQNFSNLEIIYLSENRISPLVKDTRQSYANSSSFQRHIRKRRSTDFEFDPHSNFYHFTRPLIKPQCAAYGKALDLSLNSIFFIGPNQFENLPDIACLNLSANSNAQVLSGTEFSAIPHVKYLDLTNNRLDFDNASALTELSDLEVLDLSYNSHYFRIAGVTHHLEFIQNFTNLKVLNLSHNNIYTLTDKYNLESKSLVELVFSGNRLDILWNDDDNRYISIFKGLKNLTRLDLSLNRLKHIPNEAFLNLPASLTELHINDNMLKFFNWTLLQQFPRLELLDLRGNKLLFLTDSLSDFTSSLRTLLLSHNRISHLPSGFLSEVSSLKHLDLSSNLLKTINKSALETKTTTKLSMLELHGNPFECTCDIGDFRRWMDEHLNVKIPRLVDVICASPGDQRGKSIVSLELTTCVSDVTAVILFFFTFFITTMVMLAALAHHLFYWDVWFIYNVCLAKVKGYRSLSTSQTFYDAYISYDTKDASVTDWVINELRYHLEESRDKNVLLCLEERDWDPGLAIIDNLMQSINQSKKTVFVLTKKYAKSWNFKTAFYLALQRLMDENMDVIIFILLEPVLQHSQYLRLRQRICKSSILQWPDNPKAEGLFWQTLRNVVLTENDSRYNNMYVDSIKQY
Outline: (§1)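 EC50s come from NF-kB/AP1-driven SEAP secretion in HEK-Blue cells expressing TLR7 or TLR8, measured with Quanti-Blue after an 18 h compound incubation. Maximal response is defined by a 50 μM reference standard.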

THP-1 cells = experiment: Measurement of IL-1β production, hTRF protocol (second alternative procedure), THP-1 cells; assay type: cell-based, human; details: human, read-out: NLRP3 hILIB EC50
Outline: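 Compounds, dilution series starting at a final 10 μM, were incubated 2 hours at 37° C with PMA-differentiated THP-1 cells (50 ng/ml overnight; 50,000 cells/well, 2% FBS RPMI). Released IL-1β quantified in supernatant by hTRF kit with 1:40 antibody dilution, 4° C overnight, 665/615 nm ratio.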

TLR7 = target: T2, TLR7 (Homo sapiens, UniProt Q9NYK1); experiment: In vitro human TLR7 binding reporter assay (HEK-Blue, NF-kB/AP1-inducible SEAP); assay type: cell-based; details: activity range class, read-out: TLR7 Agonist EC50
T2 construct: human HEK-Blue cells co-expressing a TLR7 or TLR8 gene
T2 sequence (Q9NYK1 27-1049): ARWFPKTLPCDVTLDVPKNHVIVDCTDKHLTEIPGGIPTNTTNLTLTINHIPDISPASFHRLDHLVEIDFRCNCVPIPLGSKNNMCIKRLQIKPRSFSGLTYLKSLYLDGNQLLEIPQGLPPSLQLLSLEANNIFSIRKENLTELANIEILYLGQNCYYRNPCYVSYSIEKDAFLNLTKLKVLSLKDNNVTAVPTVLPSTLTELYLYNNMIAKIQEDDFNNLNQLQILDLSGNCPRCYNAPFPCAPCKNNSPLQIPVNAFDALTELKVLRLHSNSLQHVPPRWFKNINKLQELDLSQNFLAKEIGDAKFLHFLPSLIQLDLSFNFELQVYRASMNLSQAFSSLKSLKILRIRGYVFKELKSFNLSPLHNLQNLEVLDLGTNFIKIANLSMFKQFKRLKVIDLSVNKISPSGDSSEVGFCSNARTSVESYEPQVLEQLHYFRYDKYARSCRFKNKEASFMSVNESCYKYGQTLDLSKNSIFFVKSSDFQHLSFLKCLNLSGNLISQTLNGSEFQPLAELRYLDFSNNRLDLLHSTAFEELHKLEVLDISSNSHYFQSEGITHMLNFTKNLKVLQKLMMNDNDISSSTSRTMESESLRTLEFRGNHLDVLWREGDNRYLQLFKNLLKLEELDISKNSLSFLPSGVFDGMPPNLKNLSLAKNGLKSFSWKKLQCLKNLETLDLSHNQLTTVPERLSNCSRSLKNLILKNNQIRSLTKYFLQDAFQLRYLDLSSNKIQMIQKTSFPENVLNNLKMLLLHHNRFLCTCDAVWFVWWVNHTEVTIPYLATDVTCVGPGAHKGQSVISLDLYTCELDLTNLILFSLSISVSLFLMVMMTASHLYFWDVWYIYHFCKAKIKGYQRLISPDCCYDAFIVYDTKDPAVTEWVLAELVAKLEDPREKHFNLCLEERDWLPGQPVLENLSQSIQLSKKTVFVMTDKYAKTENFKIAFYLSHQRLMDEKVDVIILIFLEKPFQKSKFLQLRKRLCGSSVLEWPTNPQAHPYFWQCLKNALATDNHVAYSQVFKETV
Outline: as §1

[1] = Homo sapiens, THP-1, IL-1β production

EC50 (TLR8) | EC50 (THP-1 cells; [1]) | EC50 (TLR7) | EC50 (THP-1 cells; IL-1β production) | Compound
> 100 µM | 20.3 µM | > 100 µM |  | CC(=O)NC(C)Cn1cc2c(N)nc3cc(-c4ccn[nH]4)ccc3c2n1 (stereo not drawn) [Example 254]
> 100 µM | 10.9 µM | > 100 µM |  | Nc1nc2cc(-c3ccn[nH]3)ccc2c2nn(CC3COCCN3)cc12 (stereo not drawn) [Example 255]
> 100 µM | 0.53 µM | > 100 µM |  | CC(=O)NC(C)(C)Cn1cc2c(N)nc3cc(-c4ccn[nH]4)ccc3c2n1 [Example 256]
> 100 µM | 0.86 µM | > 100 µM |  | CC(N)Cn1cc2c(N)nc3cc(-c4ccn[nH]4)ccc3c2n1 (stereo not drawn) [Example 257]
> 100 µM | 1.78 µM | > 100 µM |  | CC(=O)N1CCCC1Cn1cc2c(N)nc3cc(-c4ccn[nH]4)ccc3c2n1 (stereo not drawn) [Example 258]
> 100 µM | 2.29 µM | > 100 µM |  | CC(=O)N(C)CCn1cc2c(N)nc3cc(-c4ccn[nH]4)ccc3c2n1 [Example 259]
> 100 µM | 5.76 µM | > 100 µM |  | Nc1nc2cc(-c3ccn[nH]3)ccc2c2nn(CCN3CCOCC3)cc12 [Example 260]
> 100 µM | 1.29 µM | > 100 µM |  | CN(C)CCn1cc2c(N)nc3cc(-c4ccn[nH]4)ccc3c2n1 [Example 261]
> 100 µM | 0.75 µM | > 100 µM |  | CC(C)(Cn1cc2c(N)nc3cc(-c4ccn[nH]4)ccc3c2n1)NC(=O)C1CCCO1 (stereo not drawn) [Example 262]
> 100 µM | 1.66 µM | > 100 µM |  | CCN1CCOCC1Cn1cc2c(N)nc3cc(-c4ccn[nH]4)ccc3c2n1 (stereo not drawn) [Example 263]
> 100 µM | 0.99 µM | > 100 µM |  | CC(C)(F)C(=O)N1CCOCC1Cn1cc2c(N)nc3cc(-c4ccn[nH]4)ccc3c2n1 (stereo not drawn) [Example 264]
> 100 µM | 2.47 µM | > 100 µM |  | COC1CCCN(CCn2cc3c(N)nc4cc(-c5ccn[nH]5)ccc4c3n2)C1 (stereo not drawn) [Example 265]
> 100 µM | 2.62 µM | > 100 µM |  | COC1CCN(CCn2cc3c(N)nc4cc(-c5ccn[nH]5)ccc4c3n2)C1 (stereo not drawn) [Example 266]
> 100 µM | 1.07 µM | > 100 µM |  | CC(C)(N)Cn1cc2c(N)nc3cc(-c4ccn[nH]4)ccc3c2n1 [Example 267]
> 100 µM | 4.5 µM | > 100 µM |  | COC1CN(CCn2cc3c(N)nc4cc(-c5ccn[nH]5)ccc4c3n2)C1 [Example 268]
> 100 µM | 4.38 µM | > 100 µM |  | CC(=O)N1CCOCC1Cn1cc2c(N)nc3cc(-c4ccn[nH]4)ccc3c2n1 (stereo not drawn) [Example 269]
> 100 µM | 5.18 µM | > 100 µM |  | CC(Cn1cc2c(N)nc3cc(-c4ccn[nH]4)ccc3c2n1)NC(=O)C(C)(C)C#N (stereo not drawn) [Example 270]
> 100 µM | 1.07 µM | > 100 µM |  | Nc1nc2cc(-c3ccn[nH]3)ccc2c2nn(CCN3CCC3)cc12 [Example 271]
> 100 µM | 5.13 µM | > 100 µM |  | CCN(CCn1cc2c(N)nc3cc(-c4ccn[nH]4)ccc3c2n1)C(C)=O [Example 272]

EC50 (TLR8) | EC50 (THP-1 cells; [1]) | EC50 (TLR7) | EC50 (THP-1 cells; IL-1β production) | Compound
> 100 µM | 5.16 µM | > 100 µM |  | CC(Cn1cc2c(N)nc3cc(-c4ccn[nH]4)ccc3c2n1)NC(=O)C(C)(C)F (stereo not drawn) [Example 273]
> 100 µM | 0.6 µM | > 100 µM |  | CCN1CCCC1Cn1cc2c(N)nc3cc(-c4ccn[nH]4)ccc3c2n1 (stereo not drawn) [Example 274]
> 100 µM | 1.73 µM | > 100 µM |  | CC(C)NCCn1cc2c(N)nc3cc(-c4ccn[nH]4)ccc3c2n1 [Example 275]
> 100 µM | 31.7 µM | > 100 µM |  | CC(=O)N1CCN(CCn2cc3c(N)nc4cc(-c5ccn[nH]5)ccc4c3n2)CC1 [Example 276]
> 100 µM | 2.33 µM | > 100 µM |  | CNCCn1cc2c(N)nc3cc(-c4ccn[nH]4)ccc3c2n1 [Example 277]
> 100 µM | 0.75 µM | > 100 µM |  | Nc1nc2cc(-c3ccn[nH]3)ccc2c2nn(CC3CCCN3)cc12 (stereo not drawn) [Example 278]
> 100 µM | 1.13 µM | > 100 µM |  | CCNCCn1cc2c(N)nc3cc(-c4ccn[nH]4)ccc3c2n1 [Example 279]
> 100 µM | 1.72 µM | > 100 µM |  | Nc1nc2cc(-c3ccn[nH]3)ccc2c2nn(CCNC3CCC3)cc12 [Example 280]
> 100 µM | 0.24 µM | > 100 µM |  | CC(CCO)n1cc2c(N)nc3cc(-c4ccn[nH]4)ccc3c2n1 (stereo not drawn) [Example 281]
> 100 µM | 0.1 µM | > 100 µM |  | CC(O)Cn1cc2c(N)nc3cc(-c4ccn[nH]4)ccc3c2n1 (stereo not drawn) [Example 282]
> 100 µM | 0.12 µM | > 100 µM |  | CC(C)(O)Cn1cc2c(N)nc3cc(-c4ccn[nH]4)ccc3c2n1 [Example 283]
> 100 µM | 0.25 µM | > 100 µM |  | CC(O)CCn1cc2c(N)nc3cc(-c4ccn[nH]4)ccc3c2n1 (stereo not drawn) [Example 284]
> 100 µM | 0.63 µM | > 100 µM |  | CC(C)(O)CCn1cc2c(N)nc3cc(-c4ccn[nH]4)ccc3c2n1 [Example 285]
> 100 µM | 0.41 µM | > 100 µM |  | Nc1nc2cc(-c3ccn[nH]3)ccc2c2cn(CCNC(=O)c3ccccn3)cc12 [Example 286, N-[2-[4-amino-7-(1H-pyrazol-5-yl)-2H-pyrrolo[3,4-c]quinolin-2-yl]ethyl]pyridine-2-carboxamide]
> 100 µM |  | 1 to 20 µM | 0.28 µM | CO[C@@H](CO)Cn1cc2c(N)nc3cc(-c4cc[nH]n4)ccc3c2n1 [Example 289, (2R)-3-[4-amino-7-(1H-pyrazol-3-yl)-2H-pyrazolo[4,3-c]quinolin-2-yl]-2-methoxypropan-1-ol, HCl]
> 100 µM | 0.87 µM | > 100 µM |  | CC(=O)NCCn1cc2c(N)nc3cc(-c4cc[nH]n4)ccc3c2n1 [Example 290]
> 100 µM | 4.65 µM | > 100 µM |  | N#CC1(C(=O)NCCn2cc3c(N)nc4cc(-c5cc[nH]n5)ccc4c3n2)CC1 [Example 291]
> 100 µM | 0.89 µM | > 100 µM |  | CC(=O)N[C@@H](CO)Cn1cc2c(N)nc3cc(-c4cc[nH]n4)ccc3c2n1 [Example 292]
